Assay results reported in patent US20120029015A1, “Novel medical use of kynurenic acid, its precursors and derivatives” (priority 2009, published 2012).
Marks after values point to notes of the source that are not given here.

Assays:
Assay type in all cases: in vivo, Wistar rats
[1] = test system: caerulein-induced destruction of pancreatic tissue (DPT); experiment: Water content of pancreatic tissue (pancreatic edema) in caerulein-induced destruction of pancreatic tissue; conditions: for Water content of pancreas: 6 hours after inducing DPT, % of wet weight, mean
Protocol: The experiments were performed using adult male Wistar rats. All experimental procedures were in compliance with currently accepted guidelines for care and use of animals. The study protocol was approved by the Bioethics Committee. Before the experiment, rats were given no food for 24 hours, water was available in unrestricted quantities. Destruction of pancreatic tissue (DPT) was induced by injections of caerulein (dose of 15 μg/kg/hr). Animals were randomly assigned to the following groups. […] After 6 hours from inducing DPT antioxidative effects were determined by means of measuring the ferric reducing ability of plasma (FRAP) and levels of the markers of oxidative stress: malonyldialdehyde and 4-hydroxynonenals (MDA+4-HNE). The measurement of pancreatic edema, the serum α-amylase activity and histopathological analysis of pancreas were carried out to assess the progress of the disease. […] Kynurenic acid in the dose of 50 mg/kg/hrs was also effective (Table 1). Since kynurenic acid prevents edema induced by the pancreas damaging factor caerulein, kynurenic acid, its salts and derivatives may be used in prevention and therapy of conditions leading to injury of pancreatic tissue.

[2] = test system: caerulein-induced destruction of pancreatic tissue (DPT); experiment: Histological changes in pancreatic tissue in caerulein-induced DPT; conditions: KYNA 100 mg/kg/hr + caerulein; mean ± SD; scale 0-3
Protocol: The experiments were performed using adult male Wistar rats. All experimental procedures were in compliance with currently accepted guidelines for care and use of animals. The study protocol was approved by the Bioethics Committee. Before the experiment, rats were given no food for 24 hours, water was available in unrestricted quantities. Destruction of pancreatic tissue (DPT) was induced by injections of caerulein (dose of 15 μg/kg/hr). Animals were randomly assigned to the following groups. […] After 6 hours from inducing DPT antioxidative effects were determined by means of measuring the ferric reducing ability of plasma (FRAP) and levels of the markers of oxidative stress: malonyldialdehyde and 4-hydroxynonenals (MDA+4-HNE). The measurement of pancreatic edema, the serum α-amylase activity and histopathological analysis of pancreas were carried out to assess the progress of the disease. Histopathological presentation of pancreas injury consists of edema, vacuolization or necrosis (Table 2). Since in the situation of application of a pancreas damaging agent caerulein kynurenic acid in the dose of 100 mg/kg/hr prevents or diminishes edema, vacuolization, and number of necrotic foci, kynurenic acid, its salts and derivatives may be of use in prevention and therapy of conditions leading to destruction of pancreatic tissue and are characterized by such histological picture.

[3] = test system: caerulein-induced destruction of pancreatic tissue (DPT); experiment: Serum α-amylase activity in caerulein-induced DPT; conditions: mean
Protocol: The experiments were performed using adult male Wistar rats. All experimental procedures were in compliance with currently accepted guidelines for care and use of animals. The study protocol was approved by the Bioethics Committee. Before the experiment, rats were given no food for 24 hours, water was available in unrestricted quantities. Destruction of pancreatic tissue (DPT) was induced by injections of caerulein (dose of 15 μg/kg/hr). Animals were randomly assigned to the following groups. […] After 6 hours from inducing DPT antioxidative effects were determined by means of measuring the ferric reducing ability of plasma (FRAP) and levels of the markers of oxidative stress: malonyldialdehyde and 4-hydroxynonenals (MDA+4-HNE). The measurement of pancreatic edema, the serum α-amylase activity and histopathological analysis of pancreas were carried out to assess the progress of the disease. The extent of the serum α-amylase elevation is roughly proportional to the degree of destruction of pancreatic tissue. In Table 3 it is shown that kynurenic acid in the dose of 100 mg/kg/hr prevents elevation of α-amylase in the serum of caerulein-treated rats. Kynurenic acid in the dose of 50 mg/kg/hrs was also effective. […]

[4] = test system: caerulein-induced destruction of pancreatic tissue (DPT); experiment: Plasma levels of lipid peroxidation products (MDA + 4-HNE) in caerulein-induced DPT; conditions: KYNA 100 mg/kg/hr + caerulein, mean
Protocol: (§1) The experiments were performed using adult male Wistar rats. All experimental procedures were in compliance with currently accepted guidelines for care and use of animals. The study protocol was approved by the Bioethics Committee. Before the experiment, rats were given no food for 24 hours, water was available in unrestricted quantities. Destruction of pancreatic tissue (DPT) was induced by injections of caerulein (dose of 15 μg/kg/hr). Animals were randomly assigned to the following groups. […] After 6 hours from inducing DPT antioxidative effects were determined by means of measuring the ferric reducing ability of plasma (FRAP) and levels of the markers of oxidative stress: malonyldialdehyde and 4-hydroxynonenals (MDA+4-HNE). The measurement of pancreatic edema, the serum α-amylase activity and histopathological analysis of pancreas were carried out to assess the progress of the disease. In the group of animals with caerulein-induced destruction of pancreatic tissue significant increase of concentration of malonyldialdehyde (MDA) and 4-hydroxynonenals (4-HNE), two markers of oxidative stress, occurred.

[5] = test system: caerulein-induced destruction of pancreatic tissue (DPT); experiment: Antioxidant capacity of plasma (FRAP) in caerulein-induced DPT; conditions: KYNA 100 mg/kg/hr + caerulein, mean
Protocol: as §1, with “disease.” for “disease. In the group of animals with caerulein-induced destruction of pancreatic tissue significant increase of concentration of malonyldialdehyde (MDA) and 4-hydroxynonenals (4-HNE), two markers of oxidative stress, occurred.”

SMILES: O=C(O)c1cc(O)c2ccccc2n1 [KYNA, kynurenic acid]
- Water content of pancreas ([1]; KYNA 50 mg/kg/hr infusion + caerulein): 73.03* %
- Water content of pancreas ([1]; KYNA 100 mg/kg/hr infusion + caerulein): 68.22* %
- Macroscopic edema of pancreas ([1]; KYNA 100 mg/kg/hr infusion + caerulein, macroscopic presentation): no edema was noted
- Edema (0-3), histological score [2]: 1.6 ± 0.45
- Necrosis (0-3), histological score [2]: 0.0 ± 0.0
- Vacuolisation (0-3), histological score [2]: 0.8 ± 0.44
- Serum α-amylase activity ([3]; KYNA 50 mg/kg/hr + caerulein): 5262.26^#* U/l
- Serum α-amylase activity ([3]; KYNA 100 mg/kg/hr + caerulein): 3495.20* U/l
- MDA + 4-HNE plasma level [4]: 3.11* nmol/ml
- FRAP (Ferric Reducing Ability of Plasma) [5]: 602.4* μM
